Source: patent EP0565593B1, “REDUCING PESTICIDAL INTERACTIONS IN CROPS” (priority 1990, dated 1992)
Where two headings read alike, the source gives them in different places.

Experiments:
RICE = assay: Multi-crop greenhouse test, soil-applied (Examples 65, 66; Tables 64, 65); assay type: in vivo; parameters: inhibition: dose or concentration left out as unconfirmed; details: for inhibition / inhibition at 18 g/ha / inhibition at 70 g/ha / inhibition at 280 g/ha: Oryza sativa; for inhibition at 18 g/ha: Herb. No. 1 0.018 Kg/Ha alone; for inhibition at 70 g/ha: Herb. No. 1 0.07 Kg/Ha alone; for inhibition at 280 g/ha: Herb. No. 1 0.28 Kg/Ha alone
Description: (§1) Tests according to this invention in various crops indicate widespread application of the invention. In Examples 62-66 below are described tests with a variety of herbicides contacted with COUNTER® 15G in the presence and absence of MON-7400 (Antidote No. 12); MON-13900 (No. 1); MON-4660 (No. 16) and flurazole (No. 16). Those tests were conducted according to Procedures IV or V described above and illustrated further in other foregoing examples. Plants used in all tests were, for crops (as abbreviated in parentheses); cotton (COTT); soybean (SOBE); CORN, grain sorghum (GRSO); wheat (WHEA) and RICE, and the weeds giant foxtail (GIFT) and velvetleaf (VELE). The data in the tables below represent averages of two replications.
(§2) In this test the crops and weeds were planted 1.3 cm deep in 13.7 cm X 27.7 cm pans containing Dupo silt loam soil. The test safeners were applied in acetone solution and COUNTER 15G as dry granules to soil cover layers and incorporated by shaking in a bag. Treated cover layers were placed on seeded pans which were transferred to greenhouse benches and subirrigated. Herbicide was applied POE six (6) days after PPI initiation and observations of plant injury made ten (10) days later; results are shown in Table 61. The herbicide used in this example was BEACON (No. 8).
(§3) In another test in the several crops and weeds used in this test series, the herbicidal component was MON-12000 (No. 1); the other components were the same. the procedure used in this test was the same as that described in Example 62, modified to use a light overhead irrigation (about 0.32 cm/day) during days 4-7 of the test. Table 64 […]

Corn [1] = assay: as above; assay type: in vivo; parameters: inhibition: dose or concentration left out as unconfirmed; details: for inhibition / inhibition at 18 g/ha / inhibition at 70 g/ha / inhibition at 280 g/ha: Zea mays; for inhibition at 18 g/ha: Herb. No. 1 0.018 Kg/Ha alone; for inhibition at 70 g/ha: Herb. No. 1 0.07 Kg/Ha alone; for inhibition at 280 g/ha: Herb. No. 1 0.28 Kg/Ha alone
Description: as §1, §2, §3

Giant foxtail (GIFT) = assay: as above; assay type: in vivo; parameters: inhibition: dose or concentration left out as unconfirmed; details: for inhibition / inhibition at 18 g/ha / inhibition at 70 g/ha / inhibition at 280 g/ha: Setaria faberi; for inhibition at 18 g/ha: Herb. No. 1 0.018 Kg/Ha alone; for inhibition at 70 g/ha: Herb. No. 1 0.07 Kg/Ha alone; for inhibition at 280 g/ha: Herb. No. 1 0.28 Kg/Ha alone
Description: as §1, §2, §3

Corn [2] = system: Corn
Corn [3] = assay: Greenhouse test Procedure VI: biocide and antidote in furrow, herbicide PPI in cover layer (Examples 43-47, 59-61; Tables 42-46, 58-60); assay type: in vivo
Method in brief: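 Corn seed furrows given granular biocide (COUNTER 15G, 1.1 mg a.i./cm row) and antidote (0.37 mg a.i./cm row); herbicide in acetone or acetone/water incorporated into cover-layer soil (PPI). Duplicate pots in greenhouse, subirrigated plus overhead watering; corn injury observed, in some series thirteen days after PPI, against untreated, herbicide and herbicide+biocide controls.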

[4] = Table 64, Herb. No. 1 0.018 Kg/Ha + Biocide No. 1 8.96 Kg/Ha
[5] = Table 64, Herb. No. 1 0.07 Kg/Ha + Biocide No. 1 8.96 Kg/Ha
[6] = Table 64, Herb. No. 1 0.28 Kg/Ha + Biocide No. 1 8.96 Kg/Ha
[7] = Table 65, Herb. No. 1 0.018 Kg/Ha + Biocide No. 1 8.96 Kg/Ha
[8] = Table 65, Herb. No. 1 0.07 Kg/Ha + Biocide No. 1 8.96 Kg/Ha
[9] = Table 65, Herb. No. 1 0.28 Kg/Ha + Biocide No. 1 8.96 Kg/Ha
[10] = Table 64, Herb. No. 1 0.018 Kg/Ha + Biocide No. 1 8.96 Kg/Ha + Antidote 4.48 Kg/Ha
[11] = Table 64, Herb. No. 1 0.07 Kg/Ha + Biocide No. 1 8.96 Kg/Ha + Antidote 4.48 Kg/Ha
[12] = Table 64, Herb. No. 1 0.28 Kg/Ha + Biocide No. 1 8.96 Kg/Ha + Antidote 4.48 Kg/Ha
[13] = Table 65, Herb. No. 1 0.018 Kg/Ha + Biocide No. 1 8.96 Kg/Ha + Antidote 4.48 Kg/Ha
[14] = Table 65, Herb. No. 1 0.07 Kg/Ha + Biocide No. 1 8.96 Kg/Ha + Antidote 4.48 Kg/Ha
[15] = Table 65, Herb. No. 1 0.28 Kg/Ha + Biocide No. 1 8.96 Kg/Ha + Antidote 4.48 Kg/Ha

COC(=O)c1c(Cl)nn(C)c1S(=O)(=O)NC(=O)Nc1nc(OC)cc(OC)n1 [Herbicide No. 1, N-[(4,6-dimethoxypyrimidin-2-yl)aminocarbonyl]-3-chloro-4-methoxycarbonyl-5-sulfonamide, reference compound]
65%: inhibition (Giant foxtail (GIFT); [8])
60%: inhibition at 280 g/ha (RICE; Table 65) | inhibition (Corn [1]; [6]) | inhibition at 70 g/ha (Giant foxtail (GIFT); Table 65)
20%: inhibition at 70 g/ha (Giant foxtail (GIFT); Table 64) | inhibition at 18 g/ha (Giant foxtail (GIFT); Table 65)
10%: inhibition (RICE; [5]) | inhibition (Corn [1]; [5]) | inhibition at 280 g/ha (Corn [1]; Table 64) | inhibition at 280 g/ha (Corn [1]; Table 65)
75%: inhibition (Corn [1]; [9])
85%: inhibition (Giant foxtail (GIFT); [6])
90%: inhibition (RICE; [9]) | inhibition (Giant foxtail (GIFT); [9])
0%: inhibition (RICE; [4]) | inhibition at 18 g/ha (RICE; Table 64) | inhibition at 70 g/ha (RICE; Table 64) | inhibition (RICE; [7]) | inhibition at 18 g/ha (RICE; Table 65) | inhibition (Corn [1]; [4]) | inhibition at 18 g/ha (Corn [1]; Table 64) | inhibition at 70 g/ha (Corn [1]; Table 64) | inhibition (Corn [1]; [7]) | inhibition at 18 g/ha (Corn [1]; Table 65) | inhibition (Corn [1]; [8]) | inhibition at 70 g/ha (Corn [1]; Table 65) | inhibition at 18 g/ha (Giant foxtail (GIFT); Table 64)
25%: inhibition (RICE; [6]) | inhibition (RICE; [8])
70%: inhibition (Giant foxtail (GIFT); [4]) | inhibition (Giant foxtail (GIFT); [5]) | inhibition at 280 g/ha (Giant foxtail (GIFT); Table 65)
30%: inhibition (Giant foxtail (GIFT); [7])
40%: inhibition at 280 g/ha (RICE; Table 64) | inhibition at 70 g/ha (RICE; Table 65) | inhibition at 280 g/ha (Giant foxtail (GIFT); Table 64)

COC(=O)COC(c1ccccc1)c1ccccc1 [compound 12]
85%: % Inhibition GIFT (Giant foxtail (GIFT); [15])
15%: % Inhibition 13 DAP Corn (Corn [2]; Antidote 4.48 + Biocide No. 1 8.96 Kg/Ha PPI, Herb. No. 8 0.07 POE, 13 DAP)
80%: % Inhibition GIFT (Giant foxtail (GIFT); [14])
10%: % Inhibition Corn (Corn [3]; Antidote + Biocide No. 1 in furrow, Herbicide No. 6 0.14 Kg/Ha PPI) | % Inhibition Corn (Corn [3]; Antidote + Biocide No. 1 in furrow, Herbicide No. 11 0.0044 Kg/Ha PPI) | % Inhibition Corn (Corn [3]; Antidote + Biocide No. 1 in furrow, Herbicide No. 12 0.0044 Kg/Ha PPI) | % Inhibition Corn (Corn [3]; Antidote + Biocide No. 1 in furrow, Herbicide No. 17 0.14 Kg/Ha PPI, 13 days) | % Inhibition Corn (Corn [3]; Antidote + Biocide No. 1 in furrow, Herbicide No. 28 0.04 Kg/Ha PPI, 13 days) | % Inhibition RICE (RICE; [11]) | % Inhibition RICE (RICE; [12]) | % Inhibition Corn (Corn [1]; [11]) | % Inhibition Corn (Corn [1]; [12])
75%: % Inhibition GIFT (Giant foxtail (GIFT); [12])
40%: % Inhibition Corn (Corn [2]; […], observed 8 days later (Table 33)) | % Inhibition Corn (Corn [3]; Antidote + Biocide No. 1 in furrow, Herbicide No. 16 0.07 Kg/Ha PPI, 13 days) | % Inhibition Corn (Corn [3]; Herbicide No. 12 0.0044 Kg/Ha PPI alone, average of two reps)
25%: % Inhibition Corn (Corn [3]; Antidote + Biocide No. 1 in furrow, Herbicide No. 20 1.12 Kg/Ha PPI, 13 days) | % Inhibition GIFT (Giant foxtail (GIFT); [13])
70%: % Inhibition Corn (Corn [3]; Herbicide No. 12 0.0044 Kg/Ha PPI + Biocide No. 1 in furrow, no antidote) | % Inhibition RICE (RICE; [15]) | % Inhibition GIFT (Giant foxtail (GIFT); [11])
0%: % Inhibition 5 DAP Corn (Corn [2]; Herb. […], 5 DAP, before herbicide application) | % Inhibition Corn (Corn [2]; Table 14: Herbicide No. 7 (ACCENT) 0.84 Kg/Ha POE + Biocide No. 2 8.96 Kg/Ha PPI + antidote 4.48 Kg/Ha PPI, 13 days after planting, 8 days after herbicide) | % Inhibition Corn (Corn [2]; […], 13 days after planting, 8 days after herbicide) | % Inhibition Corn (Corn [2]; […], observed 8 days later (Table 32)) | % Inhibition Corn (Corn [3]; Antidote + Biocide No. 1 in furrow, Herbicide No. 14 0.07 Kg/Ha PPI) | % Inhibition Corn (Corn [3]; Antidote + Biocide No. 1 in furrow, Herbicide No. 22 0.28 Kg/Ha PPI, 13 days) | % Inhibition Corn (Corn [3]; Antidote + Biocide No. 1 in furrow, Herbicide No. 25 0.14 Kg/Ha PPI, 13 days) | % Inhibition RICE (RICE; [10]) | % Inhibition RICE (RICE; [13]) | % Inhibition Corn (Corn [1]; [10]) | % Inhibition Corn (Corn [1]; [13]) | % Inhibition Corn (Corn [1]; [14])
35%: % Inhibition Corn (Corn [3]; Antidote + Biocide No. 1 in furrow, Herbicide No. 13 0.0011 Kg/Ha PPI)
most active: safener activity (Corn [2]; ACCENT POE + OP insecticides PPI, Tables 11-14) | activity in reducing corn injury (Corn [2]; primisulfuron POE + biocides PPI, Tables 8-10)
5%: % Inhibition Corn (Corn [3]; Antidote + Biocide No. 1 in furrow, Herbicide No. 18 0.04 Kg/Ha PPI, 13 days) | % Inhibition Corn (Corn [3]; Antidote + Biocide No. 1 in furrow, Herbicide No. 26 2.24 Kg/Ha PPI, 13 days)
30%: % Inhibition Corn (Corn [3]; Antidote + Biocide No. 1 in furrow, Herbicide No. 24 0.14 Kg/Ha PPI, 13 days) | % Inhibition GIFT (Giant foxtail (GIFT); [10])
60%: % Inhibition Corn (Corn [2]; […], observed 10 days after herbicide application)
20%: % Inhibition 5 DAP Corn (Corn [2]; Antidote 4.48 + Biocide No. 1 8.96 Kg/Ha PPI, Herb. No. 8 0.07, 5 DAP, before herbicide application) | % Inhibition Corn (Corn [2]; Antidote 4.48 + Biocide No. 1 8.96 Kg/Ha PPI, Herbicide No. 7 0.28 POE, 13 days after planting) | % Inhibition 5 DAP Corn (Corn [2]; in vivo) | % Inhibition 13 DAP Corn (Corn [2]; in vivo) | % Inhibition RICE (RICE; [14]) | % Inhibition Corn (Corn [1]; [15])
55%: % Inhibition Corn (Corn [3]; Antidote + Biocide No. 1 in furrow, Herbicide No. 13 0.0022 Kg/Ha PPI)
